Assay results taken from patent US20240261261A1, “NEW FORMULATION FOR INJECTION COMPRISING 1-(5-(2,4-DIFLUOROPHENYL)-1-((3-FLUOROPHENYL)SULFONYL)-4-METHOXY-1H-PYRROL-3-YL)-N-METHYLMETHANAMINE” (DAEWOONG PHARMACEUTICAL CO., LTD., priority 2021, published 2024).

Test: Water solubility
Format: physicochemical
Details: aqueous buffer, pH 6.8, the substance or its hydrochloride

With `CNCc1cn(S(=O)(=O)c2cccc(F)c2)c(-c2ccc(F)cc2F)c1OC` [Chemical Formula 1, 1-(5-(2,4-difluorophenyl)-1-((3-fluorophenyl)sulfonyl)-4-methoxy-1H-pyrrol-3-yl)-N-methylmethanamine] the solubility was 2170 µg/mL.
